Assay results taken from publication PMC4742234, “Screening of Drug Metabolizing Enzymes for the Ginsenoside Compound K In Vitro: An Efficient Anti-Cancer Substance Originating from Panax Ginseng” (PLoS ONE, 2016).
“Also recorded” adds a separate entry of the source.

Tests used:
[1] = biological target: T1, CYP2A6 (Homo sapiens, UniProt P11509); test: Inhibition of CYP2A6 (coumarin 7-hydroxylation) by CK in HLMs; type: in vitro ADME
T1 construct: tissue Cypex Ltd. (U.K.); host or cells: pooled human liver microsomes
T1 sequence (P11509 1-494): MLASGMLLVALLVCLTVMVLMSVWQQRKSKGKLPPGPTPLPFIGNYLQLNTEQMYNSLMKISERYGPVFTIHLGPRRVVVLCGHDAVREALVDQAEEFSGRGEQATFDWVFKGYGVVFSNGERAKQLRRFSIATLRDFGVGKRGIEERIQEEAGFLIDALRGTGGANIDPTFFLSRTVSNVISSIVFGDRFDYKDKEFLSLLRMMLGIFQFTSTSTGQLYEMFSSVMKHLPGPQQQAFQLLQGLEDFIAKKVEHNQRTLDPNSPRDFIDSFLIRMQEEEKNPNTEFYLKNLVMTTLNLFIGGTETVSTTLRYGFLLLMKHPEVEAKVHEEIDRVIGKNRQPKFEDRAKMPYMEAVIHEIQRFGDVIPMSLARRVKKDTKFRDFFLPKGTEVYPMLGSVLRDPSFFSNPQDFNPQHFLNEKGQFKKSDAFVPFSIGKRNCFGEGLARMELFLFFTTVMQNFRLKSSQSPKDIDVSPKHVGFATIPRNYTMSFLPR
Method: (§1) The method was conducted according to our previous study with some modifications. The CYP isoform-specific probe reactions used were phenacetin O-deethylation (for CYP1A2), coumarin 7-hydroxylation (for CYP2A6), tolbutamide 4-hydroxylation (for CYP2C9), metoprolol α-hydroxylation (for CYP2D6), chlorzoxazone 6-hydroxylation (for CYP2E1),S-Mephenytoin 4-hydroxylation (for CYP2C19), and midazolam 1-hydroxylation (for CYP3A4). The kinetic study of CK was conducted with HLMs. A 0.2 mL incubation mixture that consisted of CK (as a substrate), the HLMs (0.5 mg/mL) or CYP isoforms (10 pmol), and 0.1 M sodium phosphate buffer (pH 7.4) was pre-warmed for 5 min at 37°C. The reaction was initiated by the addition of 1 mg/mL triphosphopyridine nucleotide (NADPH). All the reagents were dissolved in methanol, and the final solvent concentration in all incubations (including the controls) was 1%. The final incubations were performed in a shaking water bath (37°C) for 30 min. The reactions were stopped by adding 0.2 mL ice-cold acetonitrile, which contains irbesartan (114.9 ng/mL) as the internal standard. The samples were vortexed for 5 min. After centrifugation (12000×g for 10 min), the supernatants were transferred, and aliquots of 20 μL were injected into the HPLC-MS/MS system for analysis.
(§2) CK (10–100 μM) and a single CYP isoform-specific substrate (with a concentration similar to its corresponding Kmvalue) were used to determine the inhibitory effect of CK on specific CYP isoforms as described in detail previously. Substrates including phenacetin, coumarin, tolbutamide, metoprolol, chlorzoxazone, S-Mephenytoin, and midazolam were used at concentrations of 10, 5, 100, 7.5, 40, 100, and 5 μM, respectively. All incubation conditions were the same as mentioned above. The inhibitory effects on the CYP isoforms were investigated individually by incubating the HLMs in the absence or presence of CK. […]

[2] = biological target: T2, CYP2C19 (Homo sapiens, UniProt P33261); test: Inhibition of CYP2C19 (S-Mephenytoin 4-hydroxylation) by CK in HLMs; type: in vitro ADME
T2 construct: tissue Cypex Ltd. (U.K.); host or cells: pooled human liver microsomes
Method: as §1, §2

[3] = biological target: T3, CYP1A2 (Homo sapiens, UniProt P05177); test: Inhibition of CYP1A2 (phenacetin O-deethylation) by CK in HLMs; type: in vitro ADME
T3 construct: tissue Cypex Ltd. (U.K.); host or cells: pooled human liver microsomes
T3 sequence (P05177 1-516): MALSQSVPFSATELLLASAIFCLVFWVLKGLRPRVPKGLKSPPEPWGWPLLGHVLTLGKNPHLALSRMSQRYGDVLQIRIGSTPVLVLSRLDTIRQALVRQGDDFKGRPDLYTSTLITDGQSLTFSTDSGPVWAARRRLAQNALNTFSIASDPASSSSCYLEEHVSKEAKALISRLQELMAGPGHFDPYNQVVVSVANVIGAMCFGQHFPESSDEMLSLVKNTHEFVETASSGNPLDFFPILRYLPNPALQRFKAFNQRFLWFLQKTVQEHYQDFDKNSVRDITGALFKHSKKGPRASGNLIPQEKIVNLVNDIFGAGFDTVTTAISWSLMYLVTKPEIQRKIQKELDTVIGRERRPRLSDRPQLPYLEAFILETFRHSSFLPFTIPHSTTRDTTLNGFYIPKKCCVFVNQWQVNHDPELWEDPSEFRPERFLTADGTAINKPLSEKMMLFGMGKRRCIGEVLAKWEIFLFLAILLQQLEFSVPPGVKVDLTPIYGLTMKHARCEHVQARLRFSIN
Method: as §1, §2

[4] = Plasma pharmacokinetics of CK in healthy volunteers; conditions: male, human, 800 mg
Method: Note that in our other study carried out in healthy volunteers, 10 healthy male volunteers received administrations of 800 mg pure CK tablets (100mg/tablet, provided by Zhejiang Hisun Pharmaceutical Company Limited, China) swallowed by 150 mL water, then series venous blood samples of 5 mL were collected into EDTA-containing tubes at 0, 0.25, 0.5, 1, 1.5, 2, 2.5, 3, 3.5, 4, 5, 6, 8, 12, 24, 36, 48, 72 and 96h. The plasma samples were analyzed by HPLC-MS/MS, the peak plasma concentration (Cmax) and time to peak plasma concentration (Tmax) were directly obtained from the observed concentration-time data. The area under the plasma concentration-time curve (AUC) from time zero to last measured concentration (AUC(0−t)) was calculated according to the linear trapezoidal rule, the estimate of oral clearance(CL/F) was calculated as CL/F = Dose /AUC(0–t).

[5] = classified by IC50 according to Kong et al

T2 sequence (P33261 whole entry): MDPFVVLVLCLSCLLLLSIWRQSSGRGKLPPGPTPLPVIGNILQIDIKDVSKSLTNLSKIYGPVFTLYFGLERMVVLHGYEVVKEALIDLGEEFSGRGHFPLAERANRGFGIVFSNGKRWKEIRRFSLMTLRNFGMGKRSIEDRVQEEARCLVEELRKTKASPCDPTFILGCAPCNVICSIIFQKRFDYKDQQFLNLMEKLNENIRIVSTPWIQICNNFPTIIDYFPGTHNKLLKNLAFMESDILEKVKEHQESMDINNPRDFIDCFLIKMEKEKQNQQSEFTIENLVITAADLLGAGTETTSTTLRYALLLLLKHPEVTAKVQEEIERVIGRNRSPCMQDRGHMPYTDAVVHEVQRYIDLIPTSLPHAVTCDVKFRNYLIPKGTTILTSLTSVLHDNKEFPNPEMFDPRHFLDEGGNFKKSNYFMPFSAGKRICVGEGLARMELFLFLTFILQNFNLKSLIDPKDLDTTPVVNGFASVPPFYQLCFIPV

CC(C)=CCC[C@](C)(OC1O[C@H](CO)[C@@H](O)[C@H](O)[C@H]1O)[C@H]1CC[C@]2(C)[C@@H]1[C@H](O)C[C@@H]1[C@@]3(C)CC[C@H](O)C(C)(C)[C@@H]3CC[C@]12C (stereo partly drawn) [CK, 20-O-β-(D-glucopyranosyl)-20(S)-protopanaxadiol]
inhibitory effect on the activity of CYP2A6 ([1]; HLMs, CK 10–100 μM): minimal; also recorded: negligible | IC50 ([1]; HLMs, coumarin 5 μM, CK 10–100 μM): > 100 µM | inhibitor potency class for CYP2A6 [1, 5]: weak (weak, if IC50≥100 μg/mL or ≥50 μM) | inhibitory effect on the activity of CYP2C19 ([2]; HLMs, CK 10–100 μM): minimal; also recorded: negligible | IC50 ([2]; HLMs, S-Mephenytoin 100 μM, CK 10–100 μM): > 100 µM | inhibitor potency class for CYP2C19 [2, 5]: weak (weak, if IC50≥100 μg/mL or ≥50 μM) | inhibitory effect on the activity of CYP1A2 ([3]; HLMs, CK 10–100 μM): minimal; also recorded: negligible | IC50 ([3]; HLMs, phenacetin 10 μM, CK 10–100 μM): > 100 µM | inhibitor potency class for CYP1A2 [3, 5]: weak (weak, if IC50≥100 μg/mL or ≥50 μM) | Cmax ([4]; oral): ~5 µM | Cmax ([4]; po): 4.07 µM
